Results on ten compounds are retold here after ChEMBL document CHEMBL1201862, “PubChem BioAssay data set” (2004).

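48-hour exposure; five concentrations; linearly interpolated endpoints. GI50 = concentration required for 50% inhibition of growth.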 Calls of active or inactive are those of the source. Rule as the data show it: active = GI50 up to about 1.1 µM and inactive = higher.

Some test systems named below: HL-60; SF-268; LOX IMVI; SF-539; RPMI-8226; PC-3; Hs-578T; SN12C; SK-MEL-2; SNB-19; SK-MEL-5; K562; ACHN; MDA-MB-231; HOP-92; Malme-3M; BT-549; CAKI-1; SW-620; NCI/ADR-RES.
Holding throughout (assay): growth of human tumour cells (NCI), 48 h

`C=C1C(=O)O[C@@H]2C[C@@H](C)[C@@H]3C=CC(=O)[C@@]3(C)[C@@H](OC(=O)CC(=O)O[C@H]3[C@@H]4C(=C)C(=O)O[C@@H]4C[C@@H](C)[C@@H]4C=CC(=O)[C@]43C)[C@H]12`: the GI50 is < 0.01 µM (active) with HL-60; 0.0582 µM (active) with SF-268; < 0.0335 µM (active) in the experiment on LOX IMVI; 0.0252 µM (active) in the experiment with SF-539; 0.0124 µM (active) in the experiment with RPMI-8226; 0.146 µM (active) in the experiment with PC-3. Also, the GI50 is 0.167 µM (active) in the experiment with Hs-578T; 0.0348 µM (active) in the experiment on SN12C; 0.0893 µM (active) in the experiment with SK-MEL-2; 0.548 µM (active) with SNB-19; 0.0869 µM (active) with SK-MEL-5; 0.0154 µM (active) in the experiment with K562. In addition, the GI50 with ACHN was 0.03 µM (active); in the experiment with MDA-MB-231, 0.0552 µM (active); in the experiment on HOP-92, 0.0296 µM (active); with Malme-3M, 0.0174 µM (active); with BT-549 it was 0.0386 µM (active); in the experiment with CAKI-1, 0.0238 µM (active). For the same compound, in the experiment with SW-620, the GI50 is 0.0129 µM (active).

For the compound `CC1C2(C)OC(=N)C(C#N)(C(c3ccccc3)O2)C1(C#N)C#N` (centres undefined), the GI50 in the experiment with HL-60 was 16.6 µM (inactive); in the experiment with SF-268, 25.5 µM (inactive); in the experiment on NCI/ADR-RES it was 42.9 µM (inactive); in the experiment on LOX IMVI it was 17.2 µM (inactive); with SF-539, 20.3 µM (inactive); with PC-3 it was 22.8 µM (inactive). The GI50 with Hs-578T is 24.6 µM (inactive); in the experiment on SN12C it was 16.6 µM (inactive); in the experiment on SK-MEL-2, 16.9 µM (inactive); with SNB-19, 55.2 µM (inactive); with SK-MEL-5, 16.7 µM (inactive); in the experiment on K562, 25.1 µM (inactive). Moreover, the GI50 in the experiment with ACHN is 38.1 µM (inactive); in the experiment on MDA-MB-231, 16.9 µM (inactive); in the experiment with HOP-92 it was 12.6 µM (inactive); in the experiment with Malme-3M, 28.3 µM (inactive); with BT-549 it was 42.3 µM (inactive); in the experiment with CAKI-1, 13.7 µM (inactive). For the same compound, the GI50 in the experiment with SW-620 was > 10 µM (inactive).

In the case of `OC1CCC(COC(c2ccccc2)(c2ccccc2)c2ccccc2)O1` (centres undefined), the GI50 in the experiment with HL-60 is 18.2 µM (inactive); in the experiment with SF-268, 16.9 µM (inactive); in the experiment on NCI/ADR-RES, 17.7 µM (inactive); in the experiment with LOX IMVI, 15.4 µM (inactive); with SF-539, 17.3 µM (inactive); with RPMI-8226 it was 19.5 µM (inactive). Moreover, the GI50 is 10.7 µM (inactive) with PC-3; 16.6 µM (inactive) in the experiment on Hs-578T; 19.2 µM (inactive) in the experiment with SN12C; 18.1 µM (inactive) with SK-MEL-2; 21.1 µM (inactive) with SNB-19; 16.9 µM (inactive) with SK-MEL-5. The GI50 was 14.8 µM (inactive) in the experiment on K562; 17 µM (inactive) in the experiment with ACHN; 16.6 µM (inactive) with MDA-MB-231; 17.9 µM (inactive) in the experiment with Malme-3M; 23.8 µM (inactive) with BT-549; 17.1 µM (inactive) with CAKI-1. Moreover, the GI50 in the experiment on SW-620 was 17.5 µM (inactive).

As to `Cn1c(=O)n2c(=O)n(C)c(=O)n2c1=O`, the GI50 in the experiment with HL-60, in the experiment on SF-268, in the experiment on NCI/ADR-RES, in the experiment on LOX IMVI, with SF-539 and with RPMI-8226 was > 100 µM (inactive) in each case. In addition, the GI50 with PC-3, with Hs-578T, with SN12C, in the experiment on SK-MEL-2, in the experiment with SNB-19 and in the experiment on SK-MEL-5 was > 100 µM (inactive) throughout. The GI50 with K562, in the experiment on MDA-MB-231, with Malme-3M, in the experiment on BT-549, in the experiment with CAKI-1 and in the experiment on SW-620 was > 100 µM (inactive) each time.

For the compound `Clc1ccc(-c2nn3c(CCCCCCCCc4nnc5sc(-c6ccc(Cl)cc6)nn45)nnc3s2)cc1`, the GI50 was 23.2 µM (inactive) in the experiment with SF-268; 21 µM (inactive) in the experiment with NCI/ADR-RES; 7.24 µM (inactive) in the experiment on LOX IMVI; 19.9 µM (inactive) in the experiment with SF-539; 10.3 µM (inactive) in the experiment on RPMI-8226; 11.5 µM (inactive) with PC-3. For the same compound, the GI50 in the experiment on Hs-578T was 27.2 µM (inactive); with SN12C, 17.5 µM (inactive); in the experiment on SK-MEL-2, 29.8 µM (inactive); in the experiment on SNB-19 it was 20.6 µM (inactive); in the experiment on SK-MEL-5, 13.8 µM (inactive); in the experiment with K562 it was 20 µM (inactive). Moreover, the GI50 in the experiment on ACHN was 30.1 µM (inactive); in the experiment with MDA-MB-231 it was 27 µM (inactive); in the experiment with HOP-92 it was 31 µM (inactive); in the experiment on Malme-3M it was 45.2 µM (inactive); in the experiment on BT-549, 24.8 µM (inactive); with CAKI-1 it was 16.3 µM (inactive). Further, the GI50 with SW-620 was 29.2 µM (inactive).

Turning to `OCC(O)C(Cl)CCl` (centres undefined), the GI50 in the experiment with HL-60, with SF-268, with NCI/ADR-RES, in the experiment on SF-539, with PC-3 and with Hs-578T was > 100 µM (inactive) each time. The GI50 with SN12C, in the experiment with SNB-19, with SK-MEL-5, in the experiment on K562, with ACHN and in the experiment with MDA-MB-231 was > 100 µM (inactive) each time. Besides, the GI50 with Malme-3M is 31.5 µM (inactive); in the experiment on BT-549, > 100 µM (inactive); with CAKI-1, > 100 µM (inactive); with SW-620 it was > 100 µM (inactive).

`C=CC(=C)CCC(Br)C(C)(C)Cl` (centres undefined): the GI50 with HL-60 is 37.1 µM (inactive); in the experiment on SF-268 it was > 100 µM (inactive); with NCI/ADR-RES it was > 100 µM (inactive); in the experiment on SF-539 it was > 100 µM (inactive); in the experiment with RPMI-8226, > 100 µM (inactive); in the experiment on PC-3 it was > 100 µM (inactive). The GI50 in the experiment with Hs-578T, in the experiment with SN12C, in the experiment with SK-MEL-2, with SNB-19, in the experiment with SK-MEL-5 and in the experiment on K562 was > 100 µM (inactive) each time. Further, the GI50 in the experiment on ACHN, in the experiment with MDA-MB-231, in the experiment with HOP-92, in the experiment with Malme-3M, with BT-549 and in the experiment on SW-620 was > 100 µM (inactive) throughout.

On to `C=C1[C@@H](OC(C)=O)/C=C/C2C3C(=O)[C@@](C)(OC(C)=O)[C@H]([C@H](OC(C)=O)[C@]4(O)[C@@H](C)C(=O)O[C@H]4[C@H]1Cl)[C@@]23C` (some centres undefined), for which the GI50 with SF-268, in the experiment on NCI/ADR-RES, in the experiment with LOX IMVI, with RPMI-8226, with PC-3 and in the experiment on Hs-578T was > 100 µM (inactive) each time. Besides, the GI50 with SN12C, with SK-MEL-2, in the experiment with SNB-19, with SK-MEL-5, with K562 and in the experiment with ACHN was > 100 µM (inactive) in each case. The GI50 in the experiment on MDA-MB-231, in the experiment on HOP-92, in the experiment with Malme-3M, in the experiment with BT-549, in the experiment with CAKI-1 and in the experiment on SW-620 was > 100 µM (inactive) in each case.

Regarding `CC1CC(OP(=O)(OCc2ccccc2)OCc2ccccc2)[C@@H](OCc2ccccc2)C(OCc2ccccc2)C1OCc1ccccc1` (some centres undefined), the GI50 in the experiment on HL-60 was 28.5 µM (inactive); with SF-268, 62.7 µM (inactive); with NCI/ADR-RES it was > 100 µM (inactive); in the experiment with LOX IMVI, > 100 µM (inactive); with SF-539, > 100 µM (inactive); with RPMI-8226 it was > 100 µM (inactive). Further, the GI50 is 23.4 µM (inactive) in the experiment on PC-3; 79.8 µM (inactive) with Hs-578T; > 100 µM (inactive) in the experiment on SN12C; > 100 µM (inactive) with SK-MEL-2; 46.8 µM (inactive) with SNB-19; 62.5 µM (inactive) with SK-MEL-5. Moreover, the GI50 with K562 is 76.9 µM (inactive); in the experiment with ACHN it was 43.9 µM (inactive); in the experiment with MDA-MB-231 it was > 100 µM (inactive); in the experiment on Malme-3M, 57.5 µM (inactive); with BT-549, 79.3 µM (inactive); in the experiment with CAKI-1, > 100 µM (inactive). In addition, in the experiment on SW-620, the GI50 is > 100 µM (inactive).

Regarding `NS(=O)(=O)c1ccc(/N=N/c2nc3nc(O)nc(O)c3[nH]2)cc1`, the GI50 in the experiment with SF-268, with NCI/ADR-RES, in the experiment with LOX IMVI, in the experiment on SF-539, in the experiment on RPMI-8226 and in the experiment with PC-3 was > 100 µM (inactive) throughout. For the same compound, the GI50 in the experiment with Hs-578T, in the experiment with SN12C, in the experiment on SK-MEL-2, in the experiment on SNB-19, with SK-MEL-5 and with K562 was > 100 µM (inactive) in each case. For the same compound, the GI50 with ACHN, in the experiment with MDA-MB-231, with HOP-92, in the experiment on Malme-3M, with BT-549 and in the experiment on CAKI-1 was > 100 µM (inactive) in each case. Further, in the experiment on SW-620, the GI50 is > 100 µM (inactive).
